In PubChem BioAssay (NCI):
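96-well plates; 48 h exposure; 5 concentrations. Endpoints by linear interpolation between flanking doses. Not reached: highest tested concentration assigned. At the TGI there is no net growth.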

What was measured:
Test in all cases: inhibition of tumour cell growth, NCI panel, 48 h
[1] = test system: 786-0 renal
[2] = test system: A549 NSCLC
[3] = test system: ACHN renal
[4] = test system: BT-549 breast
[5] = test system: CAKI-1 renal
[6] = test system: CCRF-CEM leukemia
[7] = test system: COLO 205 colon
[8] = test system: DU-145 prostate
[9] = test system: EKVX NSCLC
[10] = test system: HCC-2998 colon
[11] = test system: HCT-116 colon
[12] = test system: HL-60(TB) leukemia
[13] = test system: HOP-62 NSCLC
[14] = test system: IGROV1 ovarian
[15] = test system: LOX IMVI melanoma
[16] = test system: MCF7 breast
[17] = test system: MDA-MB-231 breast
[18] = test system: MDA-N
[19] = test system: NCI-H226 lung
[20] = test system: NCI-H460 lung
[21] = test system: OVCAR-3 ovarian
[22] = test system: OVCAR-5 ovarian
[23] = test system: PC-3 prostate
[24] = test system: RPMI-8226 leukemia
[25] = test system: RXF 393 renal
[26] = test system: SF-268 CNS
[27] = test system: SK-MEL-2 melanoma
[28] = test system: SK-MEL-28 melanoma
[29] = test system: SK-OV-3 ovarian
[30] = test system: T-47D breast
[31] = test system: TK-10 renal
[32] = test system: UACC-257 melanoma
[33] = test system: UO-31 renal
[34] = test system: A498 renal
[35] = test system: HCT-15 colon
[36] = test system: HOP-92 NSCLC
[37] = test system: K-562 leukemia
[38] = test system: KM12 colon
[39] = test system: M14 melanoma
[40] = test system: MDA-MB-435
[41] = test system: MOLT-4 leukemia
[42] = test system: NCI-H23 lung
[43] = test system: NCI-H522 lung
[44] = test system: NCI/ADR-RES ovarian
[45] = test system: OVCAR-4 ovarian
[46] = test system: OVCAR-8 ovarian
[47] = test system: SF-295 CNS
[48] = test system: SF-539 CNS
[49] = test system: SN12C renal
[50] = test system: SNB-19 CNS
[51] = test system: SNB-75 CNS
[52] = test system: SR leukemia
[53] = test system: SW-620 colon
[54] = test system: U251 CNS
[55] = test system: UACC-62 melanoma

COc1cc2cc(C(=O)N3CC(COS(C)(=O)=O)c4c3cc(N)c3ccccc43)[nH]c2c(OC)c1OC (configuration not stated)
TGI [1]: > 100 µM | TGI [2]: > 100 µM | TGI [3]: < 0.01 µM | TGI [4]: 0.25 µM | TGI [5]: 0.0928 µM | TGI [6]: > 100 µM | TGI [7]: > 100 µM | TGI [8]: < 0.01 µM | TGI [9]: < 0.01 µM | TGI [10]: < 0.01 µM | TGI [11]: > 100 µM | TGI [12]: > 100 µM | TGI [13]: > 100 µM | TGI [14]: > 100 µM | TGI [15]: > 100 µM | TGI [16]: > 100 µM | TGI [17]: < 0.01 µM | TGI [18]: > 100 µM | TGI [19]: 0.228 µM | TGI [20]: > 100 µM | TGI [21]: > 100 µM | TGI [22]: > 100 µM | TGI [23]: 30.5 µM | TGI [24]: > 100 µM | TGI [25]: 0.0377 µM | TGI [26]: > 100 µM | TGI [27]: > 100 µM | TGI [28]: > 100 µM | TGI [29]: 1.28 µM | TGI [30]: > 100 µM | TGI [31]: < 0.01 µM | TGI [32]: > 100 µM | TGI [33]: > 100 µM

COC(=O)c1cc(C#N)[nH]c1-c1ccc(C)s1
TGI [1]: > 100 µM | TGI [34]: 68.1 µM | TGI [2]: > 100 µM | TGI [3]: > 100 µM | TGI [4]: > 100 µM | TGI [5]: > 100 µM | TGI [6]: > 100 µM | TGI [7]: > 100 µM | TGI [8]: > 100 µM | TGI [9]: 78.6 µM | TGI [10]: > 100 µM | TGI [11]: > 100 µM | TGI [35]: > 100 µM | TGI [13]: > 100 µM | TGI [36]: 82.1 µM | TGI [37]: > 100 µM | TGI [38]: > 100 µM | TGI [39]: > 100 µM | TGI [17]: > 100 µM | TGI [40]: > 100 µM | TGI [18]: > 100 µM | TGI [41]: > 100 µM | TGI [19]: > 100 µM | TGI [42]: > 100 µM | TGI [20]: > 100 µM | TGI [43]: 89.7 µM | TGI [44]: > 100 µM | TGI [21]: > 100 µM | TGI [45]: > 100 µM | TGI [22]: > 100 µM | TGI [46]: > 100 µM | TGI [23]: 46.4 µM | TGI [24]: > 100 µM | TGI [25]: 46.7 µM | TGI [26]: > 100 µM | TGI [47]: > 100 µM | TGI [48]: > 100 µM | TGI [28]: > 100 µM | TGI [29]: > 100 µM | TGI [49]: > 100 µM | TGI [50]: > 100 µM | TGI [51]: > 100 µM | TGI [52]: > 100 µM | TGI [53]: > 100 µM | TGI [30]: > 100 µM | TGI [54]: > 100 µM | TGI [32]: > 100 µM | TGI [55]: > 100 µM | TGI [33]: > 100 µM
